Patent US20260285924A1, “PEPTIDE THERAPEUTICS” (priority 2023, published 2026)

Columns and labels:
[1] = test system: A-to-I RNA editing reporter (ADAR) in A375; experiment: A-to-I PepTile (REPTILE) screen: A-to-I editing of dsRNA hairpin reporter by NGS; format: cell-based, human; details: for % A-to-I editing (IFNα): IFNα 6000 U/ml for 48 hours; for % A-to-I editing (Basal): no treatment
Excerpt: (§1) FIGS. 12A-12D. A-to-I PepTile screen. (A) Composition of A-to-I PepTile linrary screen, and schematic description of the lentiviral expression vector. (B) Experimental workflow. A375 cells were transduced at low MOI, and then treated or not with IFNα for 48 hrs. RNA was extracted and Peptide_ADARreporter RNA species were amplified and sequenced by NGS. (C) Dot plot of A-to-I PepTile library effect on A-to-I editing with or without IFNα treatment. Red line is the mean A-to-I editing of all the 8088 peptides (>100 read counts) no treatment: 25.75% IFNα: 37.6%. (D) Dot plot of A-to-I PepTile library fitness effect upon IFNα for 48 hrs.
FIGS. 17A-17F show A-to-I RNA Editing PiTile (REPTILE) screen in A375. (A) A-to-I RNA Editing PiTile (REPTILE) library design consist of fragmentation of all known ADAR1, ADAR2 interactors and all human double stranded RNA-binding protein into 40 amino acid long peptide. This library was then cloned into a lentivirus vector that also encode a DNA-encoded RNA loop reporter (A-to-I Rep) that is edited by ADAR proteins in cells at the RNA level. When the construct is expressed, the RNA loop gets edited on a single Adenosine, while the 40-mer peptide get expressed at the protein level. Then we can measure the impact of the peptide expression on the editing rate of the RNA loop reporter by sequencing (NGS and Sanger). (B) Experimental workflow of REPTILE screen in A375 cell line. Cells were transduced with the REPTILE library, and then treated for 48 hours with IFNα. Following the treatment, RNA was harvested, converted into cDNA and amplicon library containing peptide Identity (barcode) linked to the RNA loop reporter were prepared for NGS. (C) Result of the A375 REPTILE screen in the no treatment condition. Each dot represents a unique peptide that is associated with an A-to-I editing rate that was measured on the RNA loop. (D) Result of the A375 REPTILE screen in the IFNα condition. Each dot represents a unique peptide that is associated with an A-to-I editing rate that was measured on the RNA loop. Red line represent the A-to-I editing mean, Dash blue line represent 2 times the standard deviation of the % A-to-I editing across all the datasets. This cutoff was used to defined peptides hits that modulate RNA A-to-I editing. (E) Peptide A-to-I Inhibitor Hits intersection between no treatment (% A-to-I editing<15%) and IFNα (% A-to-I editing<27%) conditions. (F) Peptide A-to-I Enhancers Hits intersection between no treatment (% A-to-I editing>36%) and IFNα (% A-to-I editing>47%) conditions.
Provided herein is a screening methodology to measure the effect of small peptide on A-to-I RNA editing in situ and screen thousands of peptides in a single experiment. First, a library of peptides with the potential of impairing A-to-I editing was designed and built. ADAR enzymes edit RNA only on double-stranded RNA structures and via ADAR's double stranded RNA-Binding Domain (dsRBD). […] The A-to-I PepTile library is composed of 19 Human proteins having dsRBD and 34 known protein-protein interactors of ADAR1/2. All these proteins were tiled into 40-mer peptides every 4 amino acids (FIG. 12A). To measure A-to-I editing, a biosensor consisting of a 71 bp dsRNA hairpin structure that gets A-to-I edited at a rate of 25% in A375 melanoma cells, and ~37% upon IFNα treatment was used. This A-to-I editing reporter is fused with DNA sequence encoding for a peptide from the A-to-I PepTile library. The A-to-I PepTile plasmid pool (10304 elements) was used to produced lentiviruses and transduced A375 cells at a low multiplicity of infection (MOI) (FIG. 12B). A part of the infected cells was treated with IFNα at 6000 U/ml for 48 hours, and then bulk RNA of the basal and treated condition was harvested. RNA was then retrotranscribed into cDNA and sequenced by Next-Generation Sequencing (NGS). […]

A375 cells = experiment: A-to-I PepTile screen: fitness effect upon IFNα (PepTile abundance untreated vs treated); format: cell-based, human
Excerpt: as §1
Provided herein is a screening methodology to measure the effect of small peptide on A-to-I RNA editing in situ and screen thousands of peptides in a single experiment. First, a library of peptides with the potential of impairing A-to-I editing was designed and built. ADAR enzymes edit RNA only on double-stranded RNA structures and via ADAR's double stranded RNA-Binding Domain (dsRBD). […] The A-to-I PepTile library is composed of 19 Human proteins having dsRBD and 34 known protein-protein interactors of ADAR1/2. All these proteins were tiled into 40-mer peptides every 4 amino acids (FIG. 12A). To measure A-to-I editing, a biosensor consisting of a 71 bp dsRNA hairpin structure that gets A-to-I edited at a rate of 25% in A375 melanoma cells, and ~37% upon IFNα treatment was used. This A-to-I editing reporter is fused with DNA sequence encoding for a peptide from the A-to-I PepTile library. The A-to-I PepTile plasmid pool (10304 elements) was used to produced lentiviruses and transduced A375 cells at a low multiplicity of infection (MOI) (FIG. 12B). A part of the infected cells was treated with IFNα at 6000 U/ml for 48 hours, and then bulk RNA of the basal and treated condition was harvested. RNA was then retrotranscribed into cDNA and sequenced by Next-Generation Sequencing (NGS). With the sequencing data, the A-to-I editing percentage of the RNA reporter for each PepTile is calculated since both elements are encoded on the same transcript. Moreover, with this screen one can also measure the abundance of the PepTiles between the untreated and treated conditions and determine Fitness score associated to every PepTile. To ensure a robust and more accurate A-to-I editing % estimation a cut-off of 100 read counts was set for each PepTile. […] SEQ ID NOs: 2125-2147 are A-to-I peptide inhibitors and SEQ ID NOs: 2148-2210 are A-to-I activators. In addition, 117 PepTiles were identified that either synergize (SEQ ID NOs: 2211-2243) or protect (SEQ ID NOs: 2244-2327) to IFNα-induced cell death (FIG. 12D and Table 5). These PepTiles are potential new therapeutic agents that can modulate the Interferon pathway. They may be beneficial in treating inflammatory conditions and may also enhance the effectiveness of cancer immunotherapy through synergistic effects.

[2] = IFNα 6000 U/ml for 48 hours vs untreated
[3] = A375, PepTile abundance upon IFNα treatment, negative = synthetic lethal, positive = protector

| Sequence | % A-to-I editing (IFNα) [1] [%] | % A-to-I editing (Basal) [1] [%] | Fitness Score IFNα (A375 cells; [2]) | Fitness Score IFNα (A375 cells; [3]) |
| --- | --- | --- | --- | --- |
| MLEQCNTELKKYSHVNKKALDQFVNFSEQKEKLIKRQEELD [SMC3_243] | 47.01 | 42.74 | -0.61 |  |
| MLPERLEVNGRESEEENLNKSEISQVFEIALKRNLPVNFEV [STAU1_42] | 18.40 | 11.00 | 0.46 |  |
| MLRYFDEKELELMLCGMQEIDMSDWQKSTIYRHYTKNSKQI [WWP2_185] | 25.97 | 13.42 | -0.08 |  |
| MMGGPLPPHLALKAENNSEVGASGYGVPGPTWDRGANLKDY [DHX9_28] | 54.35 | 49.65 | 1.46 |  |
| MNKSEISLVFEIALKRNMPVSFEVIKESGPPHMKSFVTRVS [STAU2_44] | 23.54 | 6.78 | 0.07 |  |
| MNMMLFEVVKMGKSAMQSVVDDWIESYKHDRDIALLDLINF [STAG2_21] | 58.92 | 43.58 | 0.65 |  |
| MPLRGWPLELLCEKSIGTANRPMGAGEALRRVLECLASGIV [ILF3_62] | 55.34 | 39.78 | -0.73 |  |
| MPVSALHQFAQMQRVQLDLKETVTTGNVMGPYFAFCAVVDG [ADAD1_25] | 25.66 | 14.03 | 0.99 |  |
| MPYERQQFESVEWYNNRNQDNYVSWSDSEDDDEDEEIEEKE [DICER1_98] | 52.37 | 37.74 | -1.79 |  |
| MQAHLAMGGGPGPGTDFTSDQADFPDTLFQEFEPPAPRPGL [ADARB2_50] | 51.37 | 40.11 | 0.65 |  |
| MQPQTTINKEQFSKRKNDTLDPELFVECTECGRKMHQICVL [EP300_306] | 20.81 | 12.58 | -0.25 |  |
| MQQGTPGMALGSMGSVVKSEASSSPPVVTSSSHSRAPCQAG [SOX2_58] | 53.74 | 41.35 | -0.36 |  |
| MQVEQMEIPPVELPPEEPPNICQLIPELELLPEKEKEKEKE [RAD21_124] | 48.70 | 39.15 | 1.20 |  |
| MQVTISVTSPLMREDPSTDPGVEEPQADAGDVLSPKKCLES [ZFR2_183] | 54.85 | 40.13 | -0.70 |  |
| MRFLYSELMKYNSQTAKDSIFEPAKGGEKLQIKKTVSFHLY [ADAR_231] | 65.21 | 56.37 | 0.14 |  |
| MRNAEFLTCNIPTSNASNNMVTTEKVENGQEPVIKLENRQE [ADAR_97] | 51.11 | 40.12 | -1.27 |  |
| MRPFQALPREQSPPPPLQTSSGAEVMDVGSGGDGQSELPAE [DGCR8_7] | 54.04 | 40.23 | 0.13 |  |
| MRRDHQLREAPDTAEKAKSHLEVPLEENVNRRVLEEGSVEA [CCDC124_27] | 24.35 | 12.18 | 1.71 |  |
| MSELNQKRPQYIKAKENTSHKIKKLEAAKKSLQNAQKHYKK [SMC1A_73] | 23.54 | 11.31 | -0.76 |  |
| MSESGNSARSSGISSQNSSTSDGDRSVSSQSSSSVSSQVTT [CDKN2AIP_47] | 26.81 | 14.82 | -1.31 |  |
| MSGTSYSGYEAAVYSAASSYYQQQQQQQKQAAAAAAAAAAT [ZFR_66] | 49.01 | 40.81 | 2.04 | 2.04 |
| MSILARLDMQRGVHGRLMDNSTSVREAAVELLGRFVLCRPQ [NIPBL_452] | 50.76 | 38.35 | 2.31 | 2.31 |
| MSKVTRAQIEDTLRRDHQLREAPDTAEKAKSHLEVPLEENV [CCDC124_24] | 13.63 | 12.50 | -1.31 |  |
| MSLLTGLSDSQVRAFRHTSTLAAMKLMTALVNVALNLSIHQ [STAG1_52] | 58.66 | 46.34 | -0.26 |  |
| MSQHRKKEADSVYGEWVPVEKNGEENKDDDNVFSSNLPSEP [SON_53] | 25.27 | 14.38 | 1.03 |  |
| MSQVRAFRHTSTLAAMKLMTALVNVALNLSIHQDNTQRQYE [STAG1_54] | 54.81 | 43.52 | 0.28 |  |
| MVEKAVSSAAGPLGPGDAVRRVLECVATGTLLTDGPGLQDP [ZFR2_205] | 54.50 | 45.00 | 0.12 |  |
| MVGEYSNLEVNASWTKERWNQEFTKHQVLIMTCYVALNVLK [DICER1_31] | 48.57 | 37.36 | 0.94 |  |
| MVISTFKKRAVEITGAGPGASSVCNSAPGSGPSSPNSSHST [HDAC5_73] | 63.84 | 49.71 | 0.74 |  |
| MVMNLLESAGFSRSNPYYIVKQGKINQMATAPDSQRLKLLR [SMC3_31] | 54.66 | 41.67 | 1.72 |  |
